Key:
[1] = Neurologic toxicity from rotarod test in rats, perorally; type: organism-based; details: rat, in vivo, po
[2] = organism: Rattus norvegicus; experiment: Compound was evaluated for anticonvulsant activity by maximal electroshock seizure test, perorally in rats; type: functional; details: po
[3] = system: Mus musculus; experiment: Compound was evaluated for anticonvulsant activity by maximal electroshock seizure test, intraperitoneally in mice; type: functional; details: ip
[4] = Neurologic toxicity from rotarod test in mice; type: organism-based; details: mouse, in vivo
[5] = Neurologic toxicity from rotarod test in mice; Value ranges from >100 to <300; type: organism-based; details: mouse, in vivo
[6] = system: Mus musculus; experiment: Compound was evaluated for anticonvulsant activity by maximal electroshock seizure test, intraperitoneally in mice; Value ranges from >100 to <300; type: functional; details: ip
[7] = organism: Rattus norvegicus; experiment: Compound was evaluated for anticonvulsant activity by maximal electroshock seizure test, perorally in rats; Value ranges from >100 […]; type: functional; details: po
[8] = Neurologic toxicity from rotarod test in rats, perorally; Value ranges from >100 to <300; type: organism-based; details: rat, in vivo, po
[9] = system: Mus musculus; experiment: Compound was evaluated for anticonvulsant activity by maximal electroshock seizure test, intraperitoneally in mice; Value ranges from >100 […]; type: functional; details: ip
[10] = Neurologic toxicity from rotarod test in mice; Value ranges from >100 […]; type: organism-based; details: mouse, in vivo

SMILES: CCNCC(=O)Nc1c(C)cccc1C
- TD50 [1]: > 500 mg/kg
- ED50 [2]: 11 mg/kg
- ED50 [3]: 18 mg/kg
- TD50 [4]: 50 mg/kg

SMILES: Cc1cccc(NC(=O)N(C)C)c1
- TD50 [1]: > 30 mg/kg
- TD50 [5]: < 300 mg/kg

SMILES: CON(C)C(=O)C(C)NC(=O)OCc1ccccc1 (configuration not stated)
- TD50 [1]: > 30 mg/kg
- ED50 [2]: ~30 mg/kg
- ED50 [6]: < 300 mg/kg
- TD50 [5]: < 300 mg/kg

SMILES: CON(C)C(=O)CNC(=O)OCc1ccccc1
- TD50 [1]: > 30 mg/kg
- TD50 [4]: 140 mg/kg

SMILES: CNC(=O)CNC(=O)OCc1ccccc1
- ED50 [7]: < 30 mg/kg
- TD50 [8]: > 100 mg/kg
- ED50 [9]: > 100 mg/kg
- TD50 [5]: < 300 mg/kg

SMILES: CN(C)C(=O)CNC(=O)OCc1ccccc1
- TD50 [1]: > 30 mg/kg
- TD50 [4]: 130 mg/kg

SMILES: CCNC(=O)CNC(=O)OCc1ccccc1
- TD50 [1]: > 500 mg/kg
- TD50 [10]: < 300 mg/kg

SMILES: COCC(NC(C)=O)C(=O)N(C)Cc1ccccc1 (configuration not stated)
- ED50 [6]: < 300 mg/kg

SMILES: CCN(CC)C(=O)CNC(=O)OCc1ccccc1
- TD50 [1]: > 30 mg/kg
- TD50 [4]: 91 mg/kg

SMILES: CCN(CC)C(=O)C(C)NC(=O)OCc1ccccc1 (configuration not stated)
- TD50 [1]: > 30 mg/kg
- ED50 [2]: < 30 mg/kg
- ED50 [3]: 74 mg/kg
- TD50 [4]: 130 mg/kg

— ChEMBL document CHEMBL1149163, “Application of predictive QSAR models to database mining: identification and experimental validation of novel anticonvulsant compounds” (J Med Chem, 2004)
